Data from PubChem BioAssay (NCI).
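Method: 48-hour compound exposure of cells in 96-well plates, five concentrations, linear interpolation of endpoints. GI50 marks 50% less growth. TGI is the concentration that stops growth completely.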

Tests used:
Assay in all cases: DTP human tumour cell line panel, 48 h
CAKI-1 renal = test system: CAKI-1 renal
PC-3 prostate = test system: PC-3 prostate
DU-145 prostate = test system: DU-145 prostate
UACC-62 melanoma = test system: UACC-62 melanoma
COLO 205 colon = test system: COLO 205 colon
UO-31 renal = test system: UO-31 renal
MDA-MB-231 breast = test system: MDA-MB-231 breast
RPMI-8226 leukemia = test system: RPMI-8226 leukemia
HOP-62 NSCLC = test system: HOP-62 NSCLC
NCI-H23 lung = test system: NCI-H23 lung
HCC-2998 colon = test system: HCC-2998 colon
SF-268 CNS = test system: SF-268 CNS
SR leukemia = test system: SR leukemia
HCT-15 colon = test system: HCT-15 colon
KM12 colon = test system: KM12 colon
SNB-75 CNS = test system: SNB-75 CNS
U251 CNS = test system: U251 CNS
M14 melanoma = test system: M14 melanoma
SF-295 CNS = test system: SF-295 CNS
HT29 colon = test system: HT29 colon
UACC-257 melanoma = test system: UACC-257 melanoma
HS 578T breast = test system: HS 578T breast
SK-MEL-5 melanoma = test system: SK-MEL-5 melanoma
SK-OV-3 ovarian = test system: SK-OV-3 ovarian
SK-MEL-2 melanoma = test system: SK-MEL-2 melanoma
K-562 leukemia = test system: K-562 leukemia
SNB-19 CNS = test system: SNB-19 CNS
HL-60(TB) leukemia = test system: HL-60(TB) leukemia
ACHN renal = test system: ACHN renal
HOP-92 NSCLC = test system: HOP-92 NSCLC
MCF7 breast = test system: MCF7 breast
BT-549 breast = test system: BT-549 breast
NCI-H460 lung = test system: NCI-H460 lung
TK-10 renal = test system: TK-10 renal
SK-MEL-28 melanoma = test system: SK-MEL-28 melanoma
MOLT-4 leukemia = test system: MOLT-4 leukemia
RXF 393 renal = test system: RXF 393 renal
SN12C renal = test system: SN12C renal
HCT-116 colon = test system: HCT-116 colon
LOX IMVI melanoma = test system: LOX IMVI melanoma
OVCAR-4 ovarian = test system: OVCAR-4 ovarian
NCI-H522 lung = test system: NCI-H522 lung
MDA-MB-435 = test system: MDA-MB-435
A549 NSCLC = test system: A549 NSCLC
MALME-3M melanoma = test system: MALME-3M melanoma
CCRF-CEM leukemia = test system: CCRF-CEM leukemia
OVCAR-8 ovarian = test system: OVCAR-8 ovarian
NCI/ADR-RES ovarian = test system: NCI/ADR-RES ovarian
T-47D breast = test system: T-47D breast
OVCAR-3 ovarian = test system: OVCAR-3 ovarian
786-0 renal = test system: 786-0 renal
SW-620 colon = test system: SW-620 colon
OVCAR-5 ovarian = test system: OVCAR-5 ovarian
EKVX NSCLC = test system: EKVX NSCLC
SF-539 CNS = test system: SF-539 CNS
NCI-H226 lung = test system: NCI-H226 lung
IGROV1 ovarian = test system: IGROV1 ovarian

Work on `Cn1ccnc1C(=O)/C=C/c1ccc(C(=O)Nc2ccc(S(F)(F)(F)(F)F)cc2)cc1` yielded a GI50 (CAKI-1 renal) of 2.1 µM, a TGI (CAKI-1 renal) greater than 14.3 µM and a GI50 (PC-3 prostate) of 1.9 µM. It also gave a TGI (PC-3 prostate) greater than 14.3 µM, a GI50 (DU-145 prostate) of 2.41 µM and a TGI (DU-145 prostate) greater than 14.3 µM. The GI50 (UACC-62 melanoma) was 2.28 µM, the TGI (UACC-62 melanoma) was greater than 14.3 µM and the GI50 (COLO 205 colon) was 2 µM. The TGI (COLO 205 colon) was 12.3 µM, the GI50 (UO-31 renal) was 2.22 µM and the TGI (UO-31 renal) was greater than 14.3 µM. For the same molecule, the GI50 (MDA-MB-231 breast) was 2.33 µM, the TGI (MDA-MB-231 breast) was greater than 14.3 µM and the GI50 (RPMI-8226 leukemia) was 0.38 µM. The TGI (RPMI-8226 leukemia) was 2.68 µM, the GI50 (HOP-62 NSCLC) was 4.05 µM and the TGI (HOP-62 NSCLC) was greater than 14.3 µM. It also gave a GI50 (NCI-H23 lung) of 0.853 µM, a TGI (NCI-H23 lung) greater than 14.3 µM and a GI50 (HCC-2998 colon) of 2.93 µM. It also gave a TGI (HCC-2998 colon) greater than 14.3 µM, a GI50 (SF-268 CNS) of 3.09 µM and a TGI (SF-268 CNS) greater than 14.3 µM. It also gave a GI50 (SR leukemia) of 0.391 µM, a TGI (SR leukemia) of 10.3 µM and a GI50 (HCT-15 colon) of 0.799 µM. It also gave a TGI (HCT-15 colon) of 4.92 µM, a GI50 (KM12 colon) of 2.77 µM and a TGI (KM12 colon) greater than 14.3 µM. For the same molecule, the GI50 (SNB-75 CNS) was 0.761 µM, the TGI (SNB-75 CNS) was greater than 14.3 µM and the GI50 (U251 CNS) was 0.506 µM. The TGI (U251 CNS) was greater than 14.3 µM, the GI50 (M14 melanoma) was 9.17 µM and the TGI (M14 melanoma) was greater than 14.3 µM. It also gave a GI50 (SF-295 CNS) of 1.62 µM, a TGI (SF-295 CNS) greater than 14.3 µM and a GI50 (HT29 colon) of 1.88 µM. The TGI (HT29 colon) was greater than 14.3 µM, the GI50 (UACC-257 melanoma) was 2.18 µM and the TGI (UACC-257 melanoma) was greater than 14.3 µM. It also gave a GI50 (HS 578T breast) of 3.4 µM, a TGI (HS 578T breast) greater than 14.3 µM and a GI50 (SK-MEL-5 melanoma) of 0.603 µM. It also gave a TGI (SK-MEL-5 melanoma) of 5.99 µM, a GI50 (SK-OV-3 ovarian) greater than 14.3 µM and a TGI (SK-OV-3 ovarian) greater than 14.3 µM. It also gave a GI50 (SK-MEL-2 melanoma) greater than 14.3 µM, a TGI (SK-MEL-2 melanoma) greater than 14.3 µM and a GI50 (K-562 leukemia) of 0.385 µM. For the same molecule, the TGI (K-562 leukemia) was greater than 14.3 µM, the GI50 (SNB-19 CNS) was 2.34 µM and the TGI (SNB-19 CNS) was greater than 14.3 µM. For the same molecule, the GI50 (HL-60(TB) leukemia) was 0.945 µM, the TGI (HL-60(TB) leukemia) was 5.49 µM and the GI50 (ACHN renal) was 5.12 µM. The TGI (ACHN renal) was greater than 14.3 µM, the GI50 (HOP-92 NSCLC) was 3.03 µM and the TGI (HOP-92 NSCLC) was greater than 14.3 µM. For the same molecule, the GI50 (MCF7 breast) was 0.481 µM, the TGI (MCF7 breast) was greater than 14.3 µM and the GI50 (BT-549 breast) was 2.62 µM. It also gave a TGI (BT-549 breast) greater than 14.3 µM, a GI50 (NCI-H460 lung) of 0.534 µM and a TGI (NCI-H460 lung) of 2.57 µM. It also gave a GI50 (TK-10 renal) of 4 µM, a TGI (TK-10 renal) greater than 14.3 µM and a GI50 (SK-MEL-28 melanoma) greater than 14.3 µM. The TGI (SK-MEL-28 melanoma) was greater than 14.3 µM, the GI50 (MOLT-4 leukemia) was 1.72 µM and the TGI (MOLT-4 leukemia) was 10.1 µM. It also gave a GI50 (RXF 393 renal) of 2.65 µM, a TGI (RXF 393 renal) of 13.9 µM and a GI50 (SN12C renal) of 2.77 µM. The TGI (SN12C renal) was greater than 14.3 µM, the GI50 (HCT-116 colon) was 0.854 µM and the TGI (HCT-116 colon) was greater than 14.3 µM. It also gave a GI50 (LOX IMVI melanoma) of 1.01 µM, a TGI (LOX IMVI melanoma) of 3.25 µM and a GI50 (OVCAR-4 ovarian) of 0.704 µM. It also gave a TGI (OVCAR-4 ovarian) greater than 14.3 µM, a GI50 (NCI-H522 lung) of 4.69 µM and a TGI (NCI-H522 lung) greater than 14.3 µM. For the same molecule, the GI50 (MDA-MB-435) was 3.04 µM, the TGI (MDA-MB-435) was greater than 14.3 µM and the GI50 (A549 NSCLC) was 3.81 µM. For the same molecule, the TGI (A549 NSCLC) was greater than 14.3 µM, the GI50 (MALME-3M melanoma) was 5.76 µM and the TGI (MALME-3M melanoma) was greater than 14.3 µM. It also gave a GI50 (CCRF-CEM leukemia) of 0.738 µM, a TGI (CCRF-CEM leukemia) greater than 14.3 µM and a GI50 (OVCAR-8 ovarian) of 2.03 µM. It also gave a TGI (OVCAR-8 ovarian) greater than 14.3 µM, a GI50 (NCI/ADR-RES ovarian) of 1.52 µM and a TGI (NCI/ADR-RES ovarian) greater than 14.3 µM. The GI50 (T-47D breast) was 0.923 µM, the TGI (T-47D breast) was greater than 14.3 µM and the GI50 (OVCAR-3 ovarian) was 1.05 µM. It also gave a TGI (OVCAR-3 ovarian) of 7.26 µM, a GI50 (786-0 renal) of 3.86 µM and a TGI (786-0 renal) greater than 14.3 µM. It also gave a GI50 (SW-620 colon) of 0.54 µM, a TGI (SW-620 colon) of 5.58 µM and a GI50 (OVCAR-5 ovarian) of 3.3 µM. For the same molecule, the TGI (OVCAR-5 ovarian) was greater than 14.3 µM, the GI50 (EKVX NSCLC) was 0.953 µM and the TGI (EKVX NSCLC) was greater than 14.3 µM. The GI50 (SF-539 CNS) was 2.4 µM, the TGI (SF-539 CNS) was 6.45 µM and the GI50 (NCI-H226 lung) was 6.57 µM. The TGI (NCI-H226 lung) was greater than 14.3 µM, the GI50 (IGROV1 ovarian) was 3.08 µM and the TGI (IGROV1 ovarian) was greater than 14.3 µM.
